Each compound was assayed against T1, JNK1 (Homo sapiens, UniProt P45983) (assay: JNK1 biochemical assays (one or more of: time resolved fluorescence, Z'-LYTE Cascade, radioactive)). Conditions: Table 2; JNK1 IC50 activity level; read-out: Act. Level.
T1 construct: purchased Carna Biosciences
T1 sequence (P45983 whole entry): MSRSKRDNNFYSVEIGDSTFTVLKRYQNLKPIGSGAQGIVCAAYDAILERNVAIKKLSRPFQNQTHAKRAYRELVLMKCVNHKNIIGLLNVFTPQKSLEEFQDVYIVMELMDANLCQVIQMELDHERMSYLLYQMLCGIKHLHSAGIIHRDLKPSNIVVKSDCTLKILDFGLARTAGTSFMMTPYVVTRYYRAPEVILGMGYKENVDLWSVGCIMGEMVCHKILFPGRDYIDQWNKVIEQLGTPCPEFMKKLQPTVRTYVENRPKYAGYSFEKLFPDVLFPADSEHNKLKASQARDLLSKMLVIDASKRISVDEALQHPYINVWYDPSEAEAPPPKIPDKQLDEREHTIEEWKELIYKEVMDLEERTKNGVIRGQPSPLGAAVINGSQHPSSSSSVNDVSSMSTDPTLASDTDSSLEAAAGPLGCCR

IC50 [µM] | Compound
0.8 to 1 | COCCNc1ncc(C(N)=O)c(Nc2ccccc2)n1 [Example B-69, 2-(2-methoxyethylamino)-4-(phenylamino)pyrimidine-5-carboxamide]
< 0.2 | NC(=O)c1cnc(N[C@H]2CCCc3ccccc32)nc1N[C@@H]1CCC[C@H](O)C1 [Example B-75, 4-((1R,3S)-3-hydroxycyclohexylamino)-2-((S)-1,2,3,4-tetrahydronaphthalen-1-ylamino)pyrimidine-5-carboxamid]
0.8 to 1 | NC(=O)c1cnc(NCc2ccccc2)nc1Nc1ccccc1 [Example B-73, 2-(benzylamino)-4-(phenylamino)pyrimidine-5-carboxamide]
< 0.2 | COc1ccc(Nc2ncc(C(N)=O)c(Nc3ccccc3)n2)cc1F [Example B-27, 2-(3-fluoro-4-methoxyphenylamino)-4-(phenylamino)pyrimidine-5-carboxamide]

Same assay, conditions: Table 3; JNK1 IC50 activity level; read-out: Act. Level

IC50 [µM] | Compound
< 0.2 | CN[C@H]1CC[C@H](Nc2ncc(C#N)c(N[C@@H]3CCC[C@H](O)C3)n2)CC1 [Example C-11, 4-((1R,3S)-3-hydroxycyclohexylamino)-2-((1r,4R)-4-(methylamino)cyclohexylamino) pyrimidine-5-carbonitrile]
0.2 to 0.8 | CC(C)(C)Nc1ncc(C#N)c(N[C@@H]2CCC[C@](C)(O)C2)n1 [Example C-59, 2-(tert-butylamino)-4-((1R,3S)-3-hydroxy-3-methylcyclohexylamino) pyrimidine-5-carbonitrile]
< 0.2 | CCO[C@H]1CC[C@H](Nc2ncc(C#N)c(N[C@@H]3CC[C@@H](C)[C@H](O)C3)n2)CC1 [Example C-41, 2-((1r,4R)-4-ethoxycyclohexylamino)-4-((1R,3R,4R)-3-hydroxy-4-methylcyclohexylamino) pyrimidine-5-carbonitrile]

Same assay, conditions: one or more of the JNK1 biochemical assays; read-out: Act. Level (JNK1 IC50 activity level)

IC50 [µM] | Compound
< 0.2 | COCC(C)(C)Nc1nc(N[C@H]2CC[C@H](O)CC2)ncc1C(N)=O [Example 271, 2-((1r,4r)-4-hydroxycyclohexylamino)-4-(1-methoxy-2-methylpropan-2-ylamino)pyrimidine-5-carboxamide]
< 0.2 | CC(C)(Nc1nc(NC23CCC(O)(CC2)C3)ncc1C(N)=O)C1CC1 [Example 445, 4-(2-cyclopropylpropan-2-ylamino)-2-(4-hydroxybicyclo[2.2.1]heptan-1-ylamino)pyrimidine-5-carboxamide]
< 0.2 | CO[C@H]1CC[C@H](Nc2ncc(C(N)=O)c(NC3(C)CCC3)n2)CC1 [Example 402]
< 0.2 | CC(C)Nc1ncc(C(N)=O)c(N[C@@H]2CC[C@@H](C)[C@H](O)C2)n1 [Example 240, 4-((1R,3R,4R)-3-hydroxy-4-methylcyclohexylamino)-2-(isopropylamino)pyrimidine-5-carboxamide]
< 0.2 | C[C@@H](Nc1nc(N[C@H]2CCCOC2)ncc1C(N)=O)C1CC1 [Example 422, 4-((R)-1-cyclopropylethylamino)-2-((S)-tetrahydro-2H-pyran-3-ylamino)pyrimidine-5-carboxamide]
< 0.2 | C[C@@H]1CC[C@@H](Nc2nc(NC3(C)CCC3)ncc2C(N)=O)C[C@H]1O [Example 287, 4-((1R,3R,4R)-3-hydroxy-4-methylcyclohexylamino)-2-(1-methylcyclobutylamino)pyrimidine-5-carboxamide]
< 0.2 | C[C@@H]1CC[C@@H](Nc2nc(NC34CC(C(C)(C)C)(C3)C4)ncc2C(N)=O)C[C@H]1O [Example 489, 2-(3-tert-butylbicyclo[1.1.1]pentan-1-ylamino)-4-((1R,3R,4R)-3-hydroxy-4-methylcyclohexylamino)pyrimidine-5-carboxamide]
< 0.2 | CCNc1ncc(C(N)=O)c(N[C@@H]2CC[C@@H](C)[C@H](O)C2)n1 [Example 494, 2-(ethylamino)-4-((1R,3R,4R)-3-hydroxy-4-methylcyclohexylamino)pyrimidine-5-carboxamide]
< 0.2 | CC[C@@H](C)Nc1ncc(C(N)=O)c(N[C@@H]2CC[C@@H](C)[C@H](O)C2)n1 [Example 383, 2-(sec-butylamino)-4-((1R,3R,4R)-3-hydroxy-4-methylcyclohexylamino)pyrimidine-5-carboxamide]
< 0.2 | NC(=O)c1cnc(NC23CCC(O)(CC2)C3)nc1NC1CCC1 [Example 447, 4-(cyclobutylamino)-2-(4-hydroxybicyclo[2.2.1]heptan-1-ylamino)pyrimidine-5-carboxamide]
< 0.2 | CC1(Nc2ncc(C(N)=O)c(NC3CCC(C)(C)C(O)C3)n2)CC1 (stereo not shown) [Example 430, 4-(3-hydroxy-4,4-dimethylcyclohexylamino)-2-(1-methylcyclopropylamino)pyrimidine-5-carboxamide]
< 0.2 | CO[C@H]1CC[C@H](Nc2ncc(C(N)=O)c(N[C@@H]3CCC[C@H]3CO)n2)CC1 [Example 260, 4-((1R,2R)-2-(hydroxymethyl)cyclopentylamino)-2-((1r,4R)-4-methoxycyclohexylamino)pyrimidine-5-carboxamide]
< 0.2 | CCO[C@H]1CC[C@H](Nc2ncc(C(N)=O)c(NC34CC(C)(C3)C4)n2)CC1 [Example 443, 2-((1r,4r)-4-ethoxycyclohexylamino)-4-(3-methylbicyclo[1.1.1]pentan-1-ylamino)pyrimidine-5-carboxamide]
< 0.2 | CC1CCC1Nc1nc(N[C@H]2CC[C@H](OCC(F)(F)F)CC2)ncc1C(N)=O (stereo partly shown) [Example 258, 4-(2-methylcyclobutylamino)-2-((1r,4r)-4-(2,2,2-trifluoroethoxy)cyclohexylamino)pyrimidine-5-carboxamide]
< 0.2 | NC(=O)c1cnc(NC23CCC(F)(CC2)CC3)nc1N[C@@H]1CCCC[C@H](O)C1 [Example 335, 2-(4-fluorobicyclo[2.2.2]octan-1-ylamino)-4-((1R,3S)-3-hydroxycycloheptylamino)pyrimidine-5-carboxamide]
< 0.2 | CO[C@H]1CC[C@H](Nc2ncc(C(N)=O)c(NC3(C)CCCC3)n2)CC1 [Example 473]

Same assay, conditions: tested in one or more of the JNK1 biochemical assays; read-out: Act. Level (JNK1 biochemical assay IC50 activity level)

Compound | IC50 [µM]
CO[C@H]1CC[C@H](Nc2ncc(C(N)=O)c(NC3CCOCC3)n2)CC1 [Example A-55, 2-((1r,4r)-4-methoxycyclohexylamino)-4-(tetrahydro-2H-pyran-4-ylamino)pyrimidine-5-carboxamide] | 0.2 to 0.8
CO[C@H]1CC[C@H](Nc2ncc(C(N)=O)c(N[C@H]3CCCNC3)n2)CC1 [Example A-48, 2-((1r,4S)-4-methoxycyclohexylamino)-4-((S)-piperidin-3-ylamino)pyrimidine-5-carboxamide] | 0.8 to 1
CCO[C@H]1CCC[C@@H]1Nc1nc(N[C@H]2CC[C@H](OCC)CC2)ncc1C(N)=O [Example A-73, 2-((1r,4S)-4-ethoxycyclohexylamino)-4-((1S,2S)-2-ethoxycyclopentylamino)pyrimidine-5-carboxamide] | < 0.2
CCO[C@H]1CC[C@H](Nc2ncc(C(N)=O)c(N[C@H]3CCC[C@@H]3OC)n2)CC1 [Example A-103, 2-((1r,4S)-4-ethoxycyclohexylamino)-4-((1S,2S)-2-methoxycyclopentylamino)pyrimidine-5-carboxamide] | < 0.2
CC(C)Nc1nc(N[C@H]2CC[C@H](C(=O)N(C)C)CC2)ncc1C(N)=O [Example A-10, 2-((1r,4r)-4-(dimethylcarbamoyl)cyclohexylamino)-4-(isopropylamino)pyrimidine-5-carboxamide] | < 0.2
CC(C)CC(=O)N1CCC(Nc2nc(N[C@@H]3CC[C@@H](O)C3)ncc2C(N)=O)CC1 [Example A-86, 2-((1R,3R)-3-hydroxycyclopentylamino)-4-(1-(3-methylbutanoyl)piperidin-4-ylamino)pyrimidine-5-carboxamide] | 0.2 to 0.8

Continued, values first:

IC50 [µM] | Compound
< 0.2 | CO[C@@H]1CCC[C@@H](Nc2ncc(C(N)=O)c(N[C@@H]3CCC[C@H](O)C3)n2)CC1 [Example A-201, 4-((1R,3S)-3-hydroxycyclohexylamino)-2-((1R,4R)-4-methoxycycloheptylamino)pyrimidine-5-carboxamide]
< 0.2 | C[C@@H]1CC[C@@H](Nc2nc(N[C@H]3CC[C@H](OC(F)F)CC3)ncc2C(N)=O)C[C@H]1O [Example A-173, 2-((1r,4R)-4-(difluoromethoxy)cyclohexylamino)-4-((1R,3R,4R)-3-hydroxy-4-methylcyclohexylamino)pyrimidine-5-carboxamide]
0.2 to 0.8 | CCC(=O)N[C@H]1CC[C@@H](Nc2nc(NC3CCCC3)ncc2C(N)=O)CC1 [Example A-129, 2-(cyclopentylamino)-4-((1s,4s)-4-propionamidocyclohexylamino)pyrimidine-5-carboxamide]
< 0.2 | CC1(Nc2ncc(C(N)=O)c(N[C@@H]3CCCC[C@H](O)C3)n2)CCOCC1 [Example A-181, 4-((1R,3S)-3-hydroxycycloheptylamino)-2-(4-methyltetrahydro-2H-pyran-4-ylamino)pyrimidine-5-carboxamide]
< 0.2 | C[C@H](Nc1ncc(C(N)=O)c(N[C@H]2CC[C@@H](N)CC2)n1)C1CCCCC1 [Example A-126, 4-((1s,4R)-4-aminocyclohexylamino)-2-((S)-1-cyclohexylethylamino)pyrimidine-5-carboxamide]
< 0.2 | NC(=O)c1cnc(NC23CCC(CC2)CC3)nc1N[C@@H]1CCC[C@H](O)C1 [Example A-159, 2-(bicyclo[2.2.2]octan-1-ylamino)-4-((1R,3S)-3-hydroxycyclohexylamino)pyrimidine-5-carboxamide]
< 0.2 | NC(=O)c1cnc(N[C@H]2CC[C@H](OCC(F)(F)F)CC2)nc1N[C@@H]1CCCOC1 [Example A-188, 4-((R)-tetrahydro-2H-pyran-3-ylamino)-2-((1r,4R)-4-(2,2,2-trifluoroethoxy)cyclohexylamino)pyrimidine-5-carboxamide]
< 0.2 | CCO[C@H]1CC[C@H](Nc2ncc(C(N)=O)c(N[C@@H]3CC[C@@H](C)[C@H](O)C3)n2)CC1 [Example A-172, 2-((1r,4R)-4-ethoxycyclohexylamino)-4-((1R,3R,4R)-3-hydroxy-4-methylcyclohexylamino)pyrimidine-5-carboxamide]
